Assay results published in ChEMBL document CHEMBL2157915, “Identification of a Natural Product Antagonist against the Botulinum Neurotoxin Light Chain Protease” (ACS Med Chem Lett, 2010).
Activity calls are given as the source filed them. No cut-off for these calls is given here.

Assays:
[1] = molecular target: T1, Botulinum neurotoxin type A (Clostridium botulinum, UniProt P0DPI0)
[2] = molecular target: T1, Botulinum neurotoxin type A; remark: listed apart in the source
[3] = molecular target: Botulinum neurotoxin type A (Clostridium botulinum) (UniProt P0DPI0); settings: 90 uM
Sequence of Botulinum neurotoxin type A (Clostridium botulinum) (P0DPI0 2-448 limits assumed): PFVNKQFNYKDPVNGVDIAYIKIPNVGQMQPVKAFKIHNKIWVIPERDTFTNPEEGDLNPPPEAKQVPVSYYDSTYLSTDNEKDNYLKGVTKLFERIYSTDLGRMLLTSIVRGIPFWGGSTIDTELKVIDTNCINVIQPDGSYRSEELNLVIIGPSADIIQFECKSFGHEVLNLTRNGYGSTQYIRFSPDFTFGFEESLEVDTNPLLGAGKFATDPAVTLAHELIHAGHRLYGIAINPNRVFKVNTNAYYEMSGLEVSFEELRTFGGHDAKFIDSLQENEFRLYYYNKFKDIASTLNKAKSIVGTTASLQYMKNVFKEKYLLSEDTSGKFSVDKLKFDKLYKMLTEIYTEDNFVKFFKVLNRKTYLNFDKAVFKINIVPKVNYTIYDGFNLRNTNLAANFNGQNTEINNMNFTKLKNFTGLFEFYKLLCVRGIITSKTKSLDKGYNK

[4] = molecular target: T1, Botulinum neurotoxin type A; remark: listed apart in the source
[5] = molecular target: Botulinum neurotoxin type A (Clostridium botulinum) (UniProt P0DPI0); settings: 5 uM
[6] = molecular target: Botulinum neurotoxin type A (Clostridium botulinum) (UniProt P0DPI0); settings: 150 uM
[7] = molecular target: Botulinum neurotoxin type A (Clostridium botulinum) (UniProt P0DPI0)
[8] = molecular target: T1, Botulinum neurotoxin type A; remark: listed apart in the source
[9] = molecular target: Botulinum neurotoxin type A (Clostridium botulinum) (UniProt P0DPI0); settings: 500 uM

T1 sequence (P0DPI0 2-448 limits assumed): as above

Compound | EC50 [1] [µM] | Ki [2] [µM] | inhibition [3] [%] | IC50 [4] [µM] | inhibition [5] | inhibition [6] [%] | Ratio IC50 [7] | IC50 [8] | inhibition [9]
COC(=O)c1ccc(O)c2nc3c(C=O)c(O)cc(O)c3nc12 [LOMOFUNGIN] | 131 | 6.7 | 10 | ≥ 50 | Active | > 70 | 20 |  | 
Oc1cccc2cccnc12 [OXYQUINOLINE] |  |  |  |  |  |  |  | Not Active | inactive
